pEC50: −log10 of the molar value.

One test concerns LNCaP cell lines. Nature of the test: WST-1 Cell Proliferation and Viability Assay. The test is classed as cell-based. The conditions noted are these: Homo sapiens; LNCaP cells, compound incubation 18-72 hours. The method, boiled down:
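LNCaP cells (5000/well, phenol-red-free RPMI-1640 with 10% FCS) were plated overnight, then exposed to compounds in 0.1% DMSO final for 18-72 hours at 37 °C. Viability was read by WST-1 conversion to formazan after 3 h further incubation, measured at A490-A650.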
A general note: Tetrazolium dyes change colour on reduction, which living cells bring about.
In turn, `O=C(Nc1cc(OC2CCCCC2c2ccccc2)ccc1Cl)c1cc(Cl)ccc1O` (stereo not shown) [Compound 281] had a pEC50 of 5.52.
On the same count and under the same terms, the figure for `O=C(Nc1cc(C(F)(F)F)ccc1OCCc1ccc(OC(F)(F)F)cc1)c1cc(Cl)ccc1O` [Compound 162] is 6.05.
The same measure, in the same setting: the figure for `CN1CCN(c2ccc(C(F)(F)F)cc2NC(=O)c2cc(Cl)ccc2O)CC1` [Compound 309] is 4.76.
Compound `COc1ccccc1CCOc1cccc(NC(=O)c2cc(-c3ccc(Cl)c(Cl)c3)ccc2O)c1` [Compound 341] had a pEC50 of 5.05.
On the same count and under the same terms, the figure for `O=C(Nc1cc(C(F)(F)F)ccc1NCc1cccc2ccccc12)c1cc(Cl)ccc1O` [Compound 277] is 5.52.
Same read-out and setting: the figure for `N#Cc1ccc(OCCc2ccccc2C(F)(F)F)c(NC(=O)c2cc(Cl)ccc2O)c1` [Compound 140] is 5.52; for `COc1ccccc1CCOc1ccc(Cl)cc1NC(=O)c1cc(Cl)ccc1O` [Compound 133] it is 5.52.
The same measure, in the same setting: the figure for `CCC(COc1ccc(C)c(NC(=O)c2cc(Cl)ccc2O)c1)c1ccccc1` (stereo not shown) [Compound 128] is 5.70; for `O=C(Nc1cccc([N+](=O)[O-])c1)c1cc(Cl)ccc1O` [Compound 23] it is 5.40; for `COc1ccccc1CCOc1cccc(NC(=O)c2cc(Cl)ccc2NS(C)(=O)=O)c1` [Compound 337] it is 4.72.
`O=C(NCCc1cccc(OCc2ccccc2)c1)c1cc(Cl)ccc1O` [Compound 90] had a pEC50 of 4.74.
Still for that read-out and setting: the figure for `COc1ccc(OCCc2ccccc2C(F)(F)F)c(NC(=O)c2cc(Cl)ccc2O)c1` [Compound 170] is 5.40; for `O=C(Nc1cc(C(F)(F)F)ccc1OCCc1ccccc1Cl)c1cc(Cl)ccc1O` [Compound 247] it is 6.05; for `O=C(Nc1cc(Cl)ccc1OCCc1ccc(C(F)(F)F)cc1)c1cc(Cl)ccc1O` [Compound 99] it is 6.00.
Still for that read-out and setting: the value for `Cc1cccc(COc2ccc(C(F)(F)F)cc2NC(=O)c2cc(Cl)ccc2O)c1` [Compound 307] was 5.74; that for `Cc1cccc(CCOc2ccc(Cl)cc2NC(=O)c2cc(Cl)ccc2O)c1` [Compound 77] was 6.00; that for `O=C(Nc1cc(Cl)ccc1Oc1ccc(Cl)c2ccccc12)c1cc(Cl)ccc1O` [Compound 31] was 5.70.
On to `CCN(Cc1ccncc1)c1ccc(NC(=O)c2cc(Cl)ccc2O)c(OCCc2cccc(C(F)(F)F)c2)c1` [Compound 377], for which the pEC50 was 5.40.
Same read-out and setting: the figure for `Cc1cc(OCCc2ccccc2)c(NC(=O)c2cc(Cl)ccc2O)cc1Cl` [Compound 153] is 6.00; for `O=C(NCCc1ccc(Oc2ccccc2)cc1)c1cc(Cl)ccc1O` [Compound 54] it is 4.89; for `O=C(Nc1cc(Cl)ccc1OCCCc1ccccc1)c1cc(Cl)ccc1O` [Compound 75] it is 6.00.
On the same count and under the same terms, the value for `O=C(Nc1cc(C(F)(F)F)cc(Cl)c1OCCc1ccc(Cl)cc1)c1cc(Cl)ccc1O` [Compound 263] was 5.70.
Still for that read-out and setting: the figure for `O=C(Nc1cc(Cl)ccc1OCCc1ccccc1C(F)(F)F)c1cnc2cc(C(F)(F)F)ccc2c1O` [Compound 167] is 5.22.
In turn, `COc1ccccc1CCOc1cccc(NC(=O)c2cc(-c3cccc(C(F)(F)F)c3)ccc2O)c1` [Compound 352] showed a pEC50 of 5.15.
Consider `Cc1ccccc1COc1cccc(NC(=O)c2cc(Cl)ccc2O)c1` [Compound 84], for which the negative logarithm of the EC50 (pEC50) was 4.85.
Compound `O=C(Nc1cc(C(F)(F)F)ccc1OCCC1CC1)c1cc(Cl)ccc1O` [Compound 265] had a pEC50 of 6.05.
Still for that read-out and setting: the figure for `O=C(Nc1cc(Cl)ccc1OCc1ccccc1)c1cc(Cl)ccc1O` [Compound 289] is 5.48; for `CC(C)c1cc(C(=O)Nc2cccc(OCCc3ccccc3)c2)c(O)c(C(C)C)c1` [Compound 200] it is 4.43.
Still for that read-out and setting: the figure for `O=C(NCc1ccc(OCCc2ccccc2)cc1)c1cc(Cl)ccc1O` [Compound 53] is 4.64; for `O=C(Nc1cc(C(F)(F)F)ccc1Oc1ccc(Cl)c2ccccc12)c1cc(Cl)ccc1O` [Compound 264] it is 6.00.
The compound `CCN(CC)CCOc1cccc(CNc2cccc(NC(=O)c3cc(Cl)ccc3O)c2)c1` [Compound 30] showed a pEC50 of 4.30.
Still for that read-out and setting: the value for `Cc1ccc(NC(=O)c2cc(Cl)ccc2O)cc1OCCc1ccccc1` [Compound 45] was 5.40; that for `CS(=O)(=O)c1ccc(CCOc2ccc(C(F)(F)F)cc2NC(=O)c2cc(Cl)ccc2O)cc1` [Compound 287] was 5.51; that for `Cc1ccc(CCOc2ccc(Cl)cc2NC(=O)c2cc(Cl)ccc2O)cc1` [Compound 78] was 5.70.
On the same count and under the same terms, the figure for `O=C(NCc1cc(F)cc(C(F)(F)F)c1)c1cc(Cl)ccc1O` [Compound 320] is 4.76; for `O=C(Nc1cc(C(F)(F)F)ccc1OCCc1cccc(Cl)c1)c1cc(Cl)ccc1O` [Compound 248] it is 6.30.
Compound `Cc1cc(C)c(OCCc2ccccc2)c(NC(=O)c2cc(Cl)ccc2O)c1` [Compound 101] showed a pEC50 of 5.40.
The same measure, in the same setting: the value for `O=C(Nc1cc(C(F)(F)F)ccc1OCc1cccc(C(F)(F)F)c1)c1cc(Cl)ccc1O` [Compound 327] was 5.68.
On the same count and under the same terms, the figure for `Cc1ccc(OCCc2ccccc2)cc1NC(=O)c1cc(Cl)ccc1O` [Compound 43] is 5.52.
Compound `O=C(Nc1cc(C(F)(F)F)cc(Cl)c1OCCc1ccccc1C(F)(F)F)c1cc(Cl)ccc1O` [Compound 251] gave a pEC50 of 5.70.
Same read-out and setting: the value for `COc1ccccc1CCOc1cccc(NC(=O)c2cc(-c3cccc(C(C)C)c3)ccc2O)c1` [Compound 345] was 5.05.
In turn, `O=C(Nc1ccc(C(F)(F)F)cc1)c1cc(Cl)ccc1O` [Compound 61] had a pEC50 of 6.00.
In turn, `O=C(Nc1ccccc1)c1cc(Cl)ccc1O` [Compound 168] gave a pEC50 of 4.77.
Same read-out and setting: the value for `O=C(Nc1cccc(OCCc2cccc(F)c2)c1)c1cc(Cl)ccc1O` [Compound 35] was 5.00; that for `O=C(Nc1cc(COCc2ccccc2)ccc1Cl)c1cc(Cl)ccc1O` [Compound 279] was 5.22; that for `O=C(Nc1cc(Cl)ccc1OCCc1ccccc1)c1cc(Cl)cc([N+](=O)[O-])c1O` [Compound 294] was 4.72.
Same read-out and setting: the value for `COc1ccccc1CCOc1cccc(NC(=O)c2cccc(-c3ccccc3)c2O)c1` [Compound 221] was 4.77; that for `COc1ccc(CCOc2ccc(Cl)cc2NC(=O)c2cc(Cl)ccc2O)cc1` [Compound 79] was 5.70; that for `CC(COc1cccc(NC(=O)c2cc(Cl)ccc2O)c1)c1ccccc1` (stereo not shown) [Compound 19] was 5.15.
Same read-out and setting: the figure for `O=C(Nc1cccc(NCc2ccc3c(c2)OCO3)c1)c1cc(Cl)ccc1O` [Compound 11] is 4.40.
For the compound `COc1ccccc1CCOc1cccc(NC(=O)c2cc(-c3cccs3)ccc2O)c1` [Compound 356], the pEC50 is 4.80.
Still for that read-out and setting: the figure for `O=C(Nc1cc(Cl)ccc1OCc1ccc(C(F)(F)F)cc1)c1cc(Cl)ccc1O` [Compound 328] is 5.80; for `Cc1c(NC(=O)c2cc(Cl)ccc2O)cccc1OCCc1ccccc1` [Compound 48] it is 5.15; for `Cc1cccc(CCOc2cccc(NC(=O)c3cc(Cl)ccc3O)c2)c1` [Compound 57] it is 4.82.
Regarding `CS(=O)(=O)c1ccc(CCOc2ccc(Cl)cc2NC(=O)c2cc(Cl)ccc2O)cc1` [Compound 286], the pEC50 was 5.00.
Take `O=C(Nc1cc(C(F)(F)F)ccc1OCCc1ccccc1)c1cc(Cl)ccc1O` [Compound 104]: the pEC50 was 6.10.
Still for that read-out and setting: the figure for `O=C(NCc1ccc(Oc2ccccc2)cc1)c1cc(Cl)ccc1O` [Compound 26] is 4.62; for `Cc1ccccc1COc1ccc(C(F)(F)F)cc1NC(=O)c1cc(Cl)ccc1O` [Compound 312] it is 6.07; for `Cc1ccccc1COc1ccc(Cl)cc1NC(=O)c1cc(Cl)ccc1O` [Compound 313] it is 5.52.
`CCOCCOCCOc1ccc(C(F)(F)F)cc1NC(=O)c1cc(Cl)ccc1O` [Compound 298] gave a pEC50 of 5.52.
Still for that read-out and setting: the value for `O=C(Nc1cccc(Cl)c1OCCc1ccccc1)c1cc(Cl)ccc1O` [Compound 154] was 5.40; that for `CCC(COc1cc(NC(=O)c2cc(Cl)ccc2O)ccc1C)c1ccccc1` (stereo not shown) [Compound 127] was 5.70.
In turn, `CCOc1cc(CNc2cccc(NC(=O)c3cc(Cl)ccc3O)c2)ccc1OCc1ccccc1` [Compound 10] showed a pEC50 of 4.85.
Same read-out and setting: the value for `CC(C)COc1ccc(Cl)cc1NC(=O)c1cc(Cl)ccc1O` [Compound 246] was 5.70; that for `O=C(Nc1cc(Cl)ccc1OCCc1ccccc1Cl)c1cc(Cl)ccc1O` [Compound 110] was 6.00.
The same measure, in the same setting: the figure for `O=C(Nc1cc(Cl)ccc1OCCc1cccc(C(F)(F)F)c1)c1cc(Cl)ccc1O` [Compound 83] is 6.10; for `O=C(Nc1cccc(OCCc2ccccc2)c1)c1cc(F)ccc1O` [Compound 184] it is 4.82.
The same measure, in the same setting: the figure for `Cc1ccc(OCCc2ccccc2)c(NC(=O)c2cc(Cl)ccc2O)c1` [Compound 149] is 5.40; for `CCC(C)c1cccc(-c2cccc(CNC(=O)c3cc(Cl)ccc3O)c2)c1` (stereo not shown) [Compound 236] it is 4.96.

Staying with this test, now noted: Homo sapiens; LNCaP cells; flagged "Estimated": based on actual data at different concentrations.
As for `COc1ccccc1CCOc1cccc(NC(=O)c2cc(Cl)ccc2[N+](=O)[O-])c1` [Compound 229], the negative logarithm of the EC50 (pEC50) was 4.52.
Same read-out and setting: the value for `O=C(NCc1cccc(-c2ccccc2)c1)c1cc(-c2ccc(F)cc2F)ccc1O` [Compound 220] was 4.70.
The same measure, in the same setting: the figure for `O=C(NCc1ccccc1OCCc1ccccc1)c1cc(Cl)ccc1O` [Compound 116] is 4.52.
On the same count and under the same terms, the value for `CCc1ccccc1-c1cccc(CNC(=O)c2cc(Cl)ccc2O)c1` [Compound 146] was 4.52; that for `Cc1ccccc1-c1cccc(CNC(=O)c2cc(Cl)ccc2O)c1` [Compound 144] was 4.52.
On to `COc1ccc(Cl)cc1C(=O)N(C)c1cccc(OCCc2ccccc2)c1` [Compound 215], for which the pEC50 was 4.35.
Regarding `O=C(NCc1cc(-c2ccccc2)ccc1Cl)c1cc(Cl)ccc1O` [Compound 293], the pEC50 was 4.52.

As usually defined, the pEC50 is −log10 of the EC50, conventionally taken in molar units.

The record behind these values is patent US7547804B2, “Compounds, compositions, and methods employing same” (Myriad Genetics, Inc., priority 2002, dated 2009).
